Data: BigSolDB 2.1

CC(S)C(=O)NCC(=O)O (stereo not given)
solubility (mole fraction)
Conditions | 273.15 K | 278.15 K | 283.15 K | 288.15 K | 293.15 K | 298.15 K | 303.15 K | 308.15 K | 313.15 K | 318.15 K
in acetonitrile | 0.00946 | 0.0105 | 0.0115 | 0.0126 | 0.0138 | 0.0151 | 0.0165 | 0.018 | 0.0196 | 0.0212
in isobutanol | 0.0119 | 0.0141 | 0.0166 | 0.0191 | 0.0217 | 0.0247 | 0.0281 | 0.0321 | 0.0365 | 0.0413
in n-butanol | 0.0251 | 0.0311 | 0.0379 | 0.0451 | 0.0529 | 0.0614 | 0.0709 | 0.0811 | 0.0918 | 0.103
in toluene | 0.00033 | 0.00037 | 0.00041 | 0.00045 | 0.0005 | 0.00056 | 0.00062 | 0.00069 | 0.00077 | 0.00087
